# Values quoted from earlier work as cited in US20230008367A1, “COMPOUNDS USEFUL FOR TREATING LIVER DISEASES” (ABIONYX PHARMA SA, priority 2019, published 2023).
# System: adults with NASH and fibrosis
# Settings: Phase 3 trial
smiles,measurement,value
CSc1ccc(C(=O)/C=C/c2cc(C)c(OC(C)(C)C(=O)O)c(C)c2)cc1 [elafibranor],primary endpoint of NASH resolution without worsening of fibrosis,did not demonstrate a statistically significant effect
